Data from the supplement of paper PMC10307832.

Key:
Test in all cases: relative viability (nuclei count vs DMSO), 5 days (fraction); higher = more cells survive
[1] = test system: ABC-1
In short: (§1)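 Relative viability equals treated-well nuclei counts divided by vehicle-well nuclei counts. Counts came from 4× images of lung cancer cell lines grown in 1536-well plates for 5 days after pin-tool dosing on the day after seeding. Dosing used one drug alone or a fixed anchor-drug dose plus five library-drug doses (not always all listed) in √10 steps, and values are medians of duplicate plates.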

[2] = test system: CAL-12T
In short: as §1

[3] = test system: ChaGo-K-1
In short: as §1

[4] = test system: HCC-366
In short: as §1

[5] = test system: HCC-78
In short: as §1

[6] = test system: LC-2-ad
In short: as §1

[7] = test system: LOU-NH91
In short: as §1

[8] = test system: LU99A
In short: as §1

[9] = test system: NCI-H1395
In short: as §1

[10] = test system: NCI-H1651
In short: as §1

[11] = test system: NCI-H1755
In short: as §1

[12] = test system: NCI-H1793
In short: as §1

[13] = test system: NCI-H1944
In short: as §1

[14] = test system: NCI-H2087
In short: as §1

[15] = test system: NCI-H2170
In short: as §1

[16] = test system: NCI-H2405
In short: as §1

[17] = test system: NCI-H3122
In short: as §1

[18] = test system: NCI-H460
In short: as §1

[19] = test system: PC-3 [JPC-3]
In short: as §1

[20] = test system: RERF-LC-KJ
In short: as §1

O=c1cc(N2CCOCC2)oc2c(-c3cccc4c3sc3ccccc34)cccc12 + NC(=O)Nc1cc(-c2cccc(F)c2)sc1C(=O)N[C@H]1CCCNC1 [AZD7762] (partner 0.2 µM)
relative viability ([1]; first compound 0.01 µM): 0.819
relative viability ([1]; first compound 0.03162 µM): 0.774
relative viability ([1]; first compound 0.1 µM): 0.695
relative viability ([1]; first compound 0.3162 µM): 0.694
relative viability ([1]; first compound 1 µM): 0.848
relative viability ([2]; first compound 0.01 µM): 0.58
relative viability ([2]; first compound 0.03162 µM): 0.541
relative viability ([2]; first compound 0.1 µM): 0.852
relative viability ([2]; first compound 0.3162 µM): 0.676
relative viability ([2]; first compound 1 µM): 0.498
relative viability ([3]; first compound 0.01 µM): 0.847
relative viability ([3]; first compound 0.03162 µM): 0.898
relative viability ([3]; first compound 0.1 µM): 0.6
relative viability ([3]; first compound 0.3162 µM): 0.831
relative viability ([3]; first compound 1 µM): 0.938
relative viability ([4]; first compound 0.01 µM): 0.247
relative viability ([4]; first compound 0.03162 µM): 0.286
relative viability ([4]; first compound 0.1 µM): 0.127
relative viability ([4]; first compound 0.3162 µM): 0.287
relative viability ([4]; first compound 1 µM): 0.288
relative viability ([5]; first compound 0.01 µM): 0.629
relative viability ([5]; first compound 0.03162 µM): 0.616
relative viability ([5]; first compound 0.1 µM): 0.354
relative viability ([5]; first compound 0.3162 µM): 0.615
relative viability ([5]; first compound 1 µM): 0.5
relative viability ([6]; first compound 0.01 µM): 0.815
relative viability ([6]; first compound 0.03162 µM): 0.777
relative viability ([6]; first compound 0.1 µM): 0.831
relative viability ([6]; first compound 0.3162 µM): 0.817
relative viability ([6]; first compound 1 µM): 0.785
relative viability ([7]; first compound 0.01 µM): 0.755
relative viability ([7]; first compound 0.03162 µM): 0.785
relative viability ([7]; first compound 0.1 µM): 0.803
relative viability ([7]; first compound 0.3162 µM): 0.78
relative viability ([7]; first compound 1 µM): 0.751
relative viability ([8]; first compound 0.01 µM): 0.37
relative viability ([8]; first compound 0.03162 µM): 0.415
relative viability ([8]; first compound 0.1 µM): 0.438
relative viability ([8]; first compound 0.3162 µM): 0.314
relative viability ([8]; first compound 1 µM): 0.384
relative viability ([9]; first compound 0.03162 µM): 0.403
relative viability ([9]; first compound 0.1 µM): 0.357
relative viability ([9]; first compound 0.3162 µM): 0.428
relative viability ([9]; first compound 1 µM): 0.372
relative viability ([10]; first compound 0.01 µM): 0.494
relative viability ([10]; first compound 0.03162 µM): 0.504
relative viability ([10]; first compound 0.1 µM): 0.454
relative viability ([10]; first compound 0.3162 µM): 0.44
relative viability ([10]; first compound 1 µM): 0.384
relative viability ([11]; first compound 0.01 µM): 0.473
relative viability ([11]; first compound 0.03162 µM): 0.417
relative viability ([11]; first compound 0.1 µM): 0.427
relative viability ([11]; first compound 0.3162 µM): 0.434
relative viability ([11]; first compound 1 µM): 0.487
relative viability ([12]; first compound 0.01 µM): 0.593
relative viability ([12]; first compound 0.03162 µM): 0.38
relative viability ([12]; first compound 0.1 µM): 0.233
relative viability ([12]; first compound 0.3162 µM): 0.505
relative viability ([12]; first compound 1 µM): 0.464
relative viability ([13]; first compound 0.01 µM): 0.541
relative viability ([13]; first compound 0.03162 µM): 0.527
relative viability ([13]; first compound 0.1 µM): 0.481
relative viability ([13]; first compound 0.3162 µM): 0.528
relative viability ([13]; first compound 1 µM): 0.438
relative viability ([14]; first compound 0.01 µM): 1.37
relative viability ([14]; first compound 0.03162 µM): 1.23
relative viability ([14]; first compound 0.1 µM): 1.44
relative viability ([14]; first compound 0.3162 µM): 1.31
relative viability ([14]; first compound 1 µM): 1.36
relative viability ([15]; first compound 0.01 µM): 0.78
relative viability ([15]; first compound 0.03162 µM): 0.945
relative viability ([15]; first compound 0.1 µM): 0.734
relative viability ([15]; first compound 0.3162 µM): 0.842
relative viability ([15]; first compound 1 µM): 0.852
relative viability ([16]; first compound 0.01 µM): 0.7
relative viability ([16]; first compound 0.03162 µM): 0.727
relative viability ([16]; first compound 0.1 µM): 0.552
relative viability ([16]; first compound 0.3162 µM): 0.787
relative viability ([16]; first compound 1 µM): 0.827
relative viability ([17]; first compound 0.01 µM): 1.01
relative viability ([17]; first compound 0.03162 µM): 0.976
relative viability ([17]; first compound 0.1 µM): 0.731
relative viability ([17]; first compound 0.3162 µM): 0.99
relative viability ([17]; first compound 1 µM): 0.973
relative viability ([18]; first compound 0.01 µM): 0.518
relative viability ([18]; first compound 0.03162 µM): 0.622
relative viability ([18]; first compound 0.1 µM): 0.451
relative viability ([18]; first compound 0.3162 µM): 0.589
relative viability ([18]; first compound 1 µM): 0.636
relative viability ([19]; first compound 0.01 µM): 0.65
relative viability ([19]; first compound 0.03162 µM): 0.855
relative viability ([19]; first compound 0.1 µM): 0.87
relative viability ([19]; first compound 0.3162 µM): 0.954
relative viability ([19]; first compound 1 µM): 0.834
relative viability ([20]; first compound 0.01 µM): 0.595
relative viability ([20]; first compound 0.03162 µM): 0.951
relative viability ([20]; first compound 0.1 µM): 1.18
relative viability ([20]; first compound 0.3162 µM): 0.994
relative viability ([20]; first compound 1 µM): 1.03
